Data set [1] relates to MDA-MB-231 human breast cancer cells. Kind of data set: Alamar Blue cell viability (antiproliferative) assay. Format: cell-based. In general terms: Alamar Blue is a resazurin reagent that responds to reducing activity.
Data set [2] relates to MCF-7 cells. Kind of data set: Lactate dehydrogenase (LDH) cytotoxicity assay. Format: cell-based, human. To be noted: 10 μM, 72 h, LDH release. On the procedure:
The cytotoxic effects of the compounds were determined using the CytoTox 96 non-radioactive cytotoxicity assay (Promega) as previously reported. The MCF-7 cells were seeded in 96-well plates and incubated for 24 h. Cells were treated with test compounds 16, 26 and 30 at 10 μM concentration as described in the cell viability assay above. At 72 hr, 20 μL of ‘lysis solution (10X)’ was added to the control wells to ensure 100% death. The cells were incubated for a further 1 hr. Supernatant (50 μL) was removed from each well and transferred to a 96-well plate. Cytotox 96R Reagent (50 μL) was added to each well, and the plate was retained in darkness at 20 °C for 30 min. 50 μL of ‘stop solution’ was then added to each well, and the absorbance was determined at 490 nm using a Dynatech MR5000 plate reader. The cell death (%) at 10 μM was determined.

The test system of data set [3] is UACC-257. As to the kind of experiment: NCI-60 SRB screen, melanoma. Format: cell-based, human. To be noted: for GI50: Homo sapiens.
Data set [4] relates to SF-268. Kind of data set: NCI-60 SRB screen, CNS cancer. The following applies: 48 h; for GI50: Homo sapiens, five dose 0.01–100 µM. Format: cell-based, human. The procedure:
The initial NCI 60 cell line screen used the sulforhodamine B (SRB) protein assay, at one dose concentration (10 μM), and subsequently, a five-dose screening in the concentration range 0.01–100 μM was carried out.

A short description of data set [5]: HPLC stability study in plasma. The following applies: buffered plasma (plasma:buffer 1:9); for half-life at 41.3 µg/mL: human blood plasma, read-out: half-life (t½); for remaining at 24 h, 41.3 µg/mL: study over 24 h. Format: in vitro ADME, human. On the procedure: Analytical high-performance liquid chromatography (HPLC) stability studies were performed as follows using Symmetry® column (C18, 5 µm, 4.6 × 150 mm), Waters 2487 Dual Wavelength Absorbance detector, Waters 1525 binary HPLC pump and Waters 717 plus Autosampler (Waters Corporation, Milford, MA, USA) with detection at 254 nm as previously described. Samples were analysed using mobile phase acetonitrile (80%): water (20%), flow rate (1 mL/min) over 10 min. […] First, 30 µL of compound stock solution was diluted with appropriate buffer (1 mL); sample was shaken and injected immediately. Samples were withdrawn and analysed at the following time points: t = 0 min, 5 min, 30 min, 60 min, 90 min, 120 min, 24 h and 48 h. (ii) Thermal stability: Compound stock solution (1 mL) was placed in a glass vial on a heating block for 4 h at 60 °C. The sample was then cooled, diluted (acetonitrile) and analysed. (ii) Oxidising conditions: H2O2 (3%, 0.2 mL) was added to compound stock solution (0.8 mL). The vial was vortexed and retained at 20 °C, and the sample was analysed at 60, 120 180 and 240 min. (iv) Acidic conditions: HCl (0.1 M, 0.2 mL) was added to stock solutions (0.8 mL). The vial was mixed by vortex and retained at 20 °C. A sample was neutralised with NaOH (0.1 M, 0.2 mL) at 60, 120, 180 and 240 min, followed by HPLC analysis. (v) Alkaline conditions: NaOH (0.1 M, 0.2 mL) was added to stock solution (0.8 mL) of the compound in a vial. The vial was mixed by vortex and retained at 20 °C. A sample was neutralised with HCl (0.1 M, 0.2 mL) at 60, 120, 180 and 240 min followed by HPLC analysis. (vi) Photostability study: Compounds (stock solution, 1 mL) were placed in a vial, exposed to UV light for 4 h and then analysed by HPLC as above. Stability studies in plasma: Approval for this study was obtained from the School of Pharmacy and Pharmaceutical Sciences Trinity College Dublin Research Ethics Committee (2020–06-01-MS). Following informed consent, blood was withdrawn from healthy volunteers, and plasma was obtained by centrifugation and kept at −20 °C until further use. […] A sample (250 µL) was then added to the Eppendorf tube containing ZnSO4.7H2O solution (500 µL) (2% w/v ZnSO4 solution in acetonitrile:water, 1:1). The samples were centrifuged (10,000 rpm, 3 min), filtered (0.2 micron filter) and analysed by HPLC as above. Further samples were taken at one-hour intervals.

A short description of data set [6]: HPLC stability study in phosphate buffers. Format: physicochemical. To be noted: for half-life at 14.6 µg/mL / remaining at 24 h, 14.6 µg/mL / remaining at 264 h, 14.6 µg/mL: phosphate buffer; for half-life at 14.6 µg/mL: read-out: half-life (t½) (converted); for remaining at 24 h, 14.6 µg/mL: study over 24 h; for remaining at 264 h, 14.6 µg/mL: study over 264 h.

Data set [7] has as its system colchicine-binding site of β-tubulin (Cys239, Cys354) in MCF-7 cells. Kind of data set: Colchicine-binding site assay (EBI crosslinking, Western blot). The following applies: 10 μM, 2 h, then EBI. A general note: A western blot detects proteins with antibodies after separation by electrophoresis.
Method: MCF-7 cells were seeded at density of 5 × 10^4 cells/well in 6-well plates and incubated overnight. […] Samples were separated by SDS-PAGE, transferred to polyvinylidene difluoride membranes and examined with β-tubulin antibodies (Sigma-Aldrich, Milwaulkee, WI, USA) [99].
Cells were harvested, lysed and then analysed using sedimentation followed by Western blotting to identify β-tubulin and β-tubulin-EBI adduct.
The subject of data set [8] is MCF-7 cells. As to the kind of experiment: Annexin-V/PI apoptosis assay. To be noted: for cells undergoing apoptosis (early+late): 72 h.
Method: Flow cytometry using annexin-V and propidium iodide (PI) was used to detect apoptotic cell death in MCF-7 cells. […] Cells were then incubated on ice in darkness for 30 min in annexin-V-containing binding buffer [1:100]. Cells were washed once in binding buffer and then re-suspended in propidium iodide containing binding buffer [1:1000]. Cells were analysed directly using the BD Accuri flow cytometer and Prism software. Four cell populations are produced in this assay: annexin-V- and PI-negative (Q4, healthy cells), annexin-V-positive and PI-negative (Q3, early apoptosis), annexin-V- and PI-positive (Q2, late apoptosis) and annexin-V-negative and PI-positive (Q1, necrosis). CA-4 (50 nM) was used as the positive control for apoptosis.
Cells were then collected and processed for analysis.
The subject of data set [9] is microtubule network in MCF-7 cells. Kind of data set: Immunofluorescence confocal microscopy. The following applies: 16 h. Format: cell-based, human. On the procedure: CA-4 and β-lactam 9q depolymerise the microtubule network in MCF-7 cells. […] After 16 h, the cells were fixed in 4% paraformaldehyde and stained with mouse monoclonal anti-α-tubulin−FITC antibody (clone DM1A) (green), Alexa Fluor 488 dye, and counterstained with DAPI (blue). The confocal images were obtained by Leica SP8 confocal microscopy with Leica application suite X software. Representative confocal micrograph images of three separate experiments are shown above [scale bar: […]].
The effects of β-lactam 9q on MCF-7 cytoskeleton were determined using confocal microscopy as previously described. MCF-7 cells were seeded at 1 × 10^5 cells/mL in glass slides with eight chambers (BD Biosciences, San Jose, CA, USA). […] Following treatment, cells were gently washed in PBS, fixed for 20 min with 4% paraformaldehyde in PBS and permeabilised in 0.5% Triton X-100. The cells were then washed with PBS-T (PBS containing 0.1% Tween), blocked in 5% bovine serum albumin diluted in PBS-T and incubated with mouse monoclonal anti-α-tubulin-FITC antibody (clone DM1A) (Sigma, Milwaulkee, WI, USA) (1:100) for 2 h at 20 °C. The cells were washed again with PBS-T and incubated with Alexa Fluor 488 dye (1:450) for 1 h at 20 °C. Following washes in PBST, the cells were mounted in Ultra Cruz Mounting Media (Santa Cruz Biotechnology, Santa Cruz, CA, USA), which contained 4,6-diamino-2-phenolindol dihydrochloride (DAPI). The immunofluorescence cell images were captured by Leica SP8 confocal microscopy and analysed with Leica application suite X software. Microscopy experiments were performed on three independent occasions, and the images for these experiments were obtained on the same day using identical conditions.

[10] abbreviates: UACC-257, five dose 0.01–100 µM, 48 h, read-out: GI50.
Setting [11] is: Homo sapiens, MCF7, 72 h, read-out: Viable.

Where two headings read alike, the source gives them in different places. Where only a bound is given, the exact number is not on record here.

As a reminder, the IC50 is the point on the concentration scale where inhibition reaches its midpoint. The GI50 is the concentration at which growth is held to half of that of the control. One may read the half-life as how long it takes for the measured level to halve. The term share remaining denotes what is left of the initial amount, in per cent. Higher therefore signals less turnover.

As to `C=C(C)C1C(=O)N(c2cc(OC)c(OC)c(OC)c2)C1c1ccc(OC)cc1` (stereo not shown) [9h, 4-(4-Methoxyphenyl)-1-(3,4,5-trimethoxyphenyl)-3-(prop-1-en-2-yl)azetidin-2-one], the IC50 in data set [1] (read-out: IC50) came to 31.3 nM. The cell death in [2] amounted to 30%.

For `C=CC=CC1C(=O)N(c2cc(OC)c(OC)c(OC)c2)C1c1ccc(OC)cc1` (stereo not shown) [11h, 3-(Buta-1,3-dienyl)-4-(4-methoxyphenyl)-1-(3,4,5-trimethoxyphenyl)azetidin-2-one], the IC50 in data set [1] (read-out: IC50) worked out at 31 nM. For the same compound, the GI50 in data set [3] (UACC-257, 48 h) is 11200 nM.

With `C=C(C)C1C(=O)N(c2cc(OC)c(OC)c(OC)c2)C1c1ccc(OC)c(N)c1` (stereo not shown) [9s, 4-(3-Amino-4-methoxyphenyl)-1-(3,4,5-trimethoxyphenyl)-3-(prop-1-en-2-yl)azetidin-2-one], the GI50 in data set [3] (setting [10]) was over 100000 nM.

Take `COc1ccc(C2C(C(C)C)C(=O)N2c2cc(OC)c(OC)c(OC)c2)cc1OP(=O)(O)O` (stereo not shown) [15b, 5-(3-Isopropyl-1-(3,4,5-trimethoxyphenyl)-4-oxoazetidin-2-yl)-2-methoxyphenyl dihydrogen phosphate]: the concentration for 50% growth inhibition (GI50) in data set [4] is 447 nM; in data set [3] (setting [10]), over 100000 nM.

Take `C=C/C=C/C1C(=O)N(c2cc(OC)c(OC)c(OC)c2)C1c1ccc(OC)c(N)c1` (stereo not shown) [11r, (E)-4-(3-Amino-4-methoxyphenyl)-3-(buta-1,3-dien-1-yl)-1-(3,4,5-trimethoxyphenyl)azetidin-2-one]: in data set [1] (read-out: IC50), the IC50 was determined as 33 nM.

Take `C=C(C)C1C(=O)N(c2cc(OC)c(OC)c(OC)c2)C1c1ccc(OC)c(OP(=O)(O)O)c1` (stereo not shown) [15a, 2-Methoxy-5-(4-oxo-3-(prop-1-en-2-yl)-1-(3,4,5-trimethoxyphenyl)azetidin-2-yl)-phenyl dihydrogen phosphate]: the half-life at 41.3 µg/mL in [5] is over 24 h. Also, the amount remaining at 24 h, 41.3 µg/mL in [5] (human, Plasma) is 97%. The GI50 in data set [4] was 98.1 nM; in data set [3] (setting [10]), over 100000 nM. Moreover, the IC50 in data set [1] (72 h, eight concentrations 0.001-50 μM, mean ± SEM, read-out: Antiproliferative Activity IC50) was 32 ± 5 nM. Besides, the half-life at 14.6 µg/mL in [6] (pH 4) and in data set [6] (pH 7.4) was over 24 h in each case. Further, the fraction remaining at 24 h, 14.6 µg/mL in data set [6] (pH 4.0) came to 96%; in data set [6] (pH 7.4), 98%.

Consider `C=C(C)C1C(=O)N(c2cc(OC)c(OC)c(OC)c2)C1c1ccc(OC)c(O)c1` (stereo not shown) [9q, 4-(3-Hydroxy-4-methoxyphenyl)-1-(3,4,5-trimethoxyphenyl)-3-(prop-1-en-2-yl)azetidin-2-one], for which, in [5], the half-life at 41.3 µg/mL was over 24 h. Besides, the amount remaining at 24 h, 41.3 µg/mL in data set [5] (human, Plasma) is 80%. Also, the “formation of β-tubulin-EBI adduct” value in data set [7] is recorded as “formation of the EBI adduct was prevented”. Besides, the “cells undergoing apoptosis (early+late)” value in data set [8] (50 nM) is recorded as 27%; in data set [8] (500 nM) it was 38.9%. Besides, the viability at 0.05 µM in [8] (setting [11]) is 69.2%. Moreover, in data set [8] (setting [11]), the viability at 0.5 µM is 57%. In addition, the GI50 in data set [4] amounted to 22.9 nM. For the same compound, the “% Growth” value in data set [4] (one dose 10 µM) was 19.27%; in data set [3] (UACC-257, one dose 10 µM, 48 h) it was 74.47%. Moreover, in [1] (read-out: IC50), the IC50 was 23.9 nM. The “effect on microtubule network” value in data set [9] is “microtubule formation was inhibited and resulted in depolymerised microtubules”. In data set [2], this compound came in with a cell death of 32%. Moreover, the values for the half-life at 14.6 µg/mL in [6] (pH 4), in data set [6] (pH 7.4) and in [6] (pH 9) were 13 h, 13 h and 6 h, respectively. Further, the values for the fraction remaining at 24 h, 14.6 µg/mL in [6] (pH 4.0), in data set [6] (pH 7.4) and in data set [6] (pH 9.0) were 33%, 35% and 34%, respectively.

In [5] (human, Plasma, study over 264 h), `C=CCC1C(=O)N(c2cc(OC)c(OC)c(OC)c2)C1c1ccc(OC)c(O)c1` (stereo not shown) [10p, 4-(3-Hydroxy-4-methoxyphenyl)-1-(3,4,5-trimethoxyphenyl)-3-allylazetidin-2-one] came in with a fraction remaining at 264 h, 41.3 µg/mL of 97%. Besides, the IC50 in [1] (read-out: IC50) came to 27 nM. For the same compound, the compound remaining entry in data set [6] (all pH values (4, 7.4, 9), after 11 days) was “over 95%”. In addition, the figures for the fraction remaining at 264 h, 14.6 µg/mL in data set [6] (pH 4.0), in data set [6] (pH 7.4) and in data set [6] (pH 9.0) were 98%, 99% and 96%, respectively. For the same compound, in [6] (pH range studied, medium not specified), the half-life at 14.6 µg/mL was over 24 h.

These data come from publication PMC10385824, “Antiproliferative and Tubulin-Destabilising Effects of 3-(Prop-1-en-2-yl)azetidin-2-Ones and Related Compounds in MCF-7 and MDA-MB-231 Breast Cancer Cells” (Pharmaceuticals, 2023).
